Experimental data: patent EP0027679B1, “Substituted-5-((7-chloro-4-quinolinyl)amino)-3-(amino-methyl)-(1,1'-biphenyl)-2-ol compounds; processes for their production; and pharmaceutical compositions containing the compounds” (WARNER-LAMBERT COMPANY, priority 1979, dated 1981)

Tests used:
[1] = test system: chloroquine-pyrimethamine-resistant Vietnam Smith strain of P. Falciparum; assay: Owl monkey infection with P. falciparum trophozoites, Vietnam Smith strain; assay type: in vivo, owl monkeys; details: for curative: orally at 2.0 mg/kg/day for a three day period; for cleared the parasitemia: orally at 1.0 mg/kg/day for three days
Method: (§1) Studies were also conducted with infections resulting from inoculations of owl monkeys with trophozoites of the chloroquine-pyrimethamine-resistant Vietnam Smith strain of P. Falciparum; the chloroquine-quinine-resistant, pyrimethamine-susceptible Vietnam Oak Knoll strain of P. Falciparum; or the pyrimethamine-resistant Uganda Palo Alto strain of P. Falciparum. The test method is described in L. H. Schmidt, Trans. R. Soc. Trop. Med Hyg. 67 446 (1973).

[2] = test system: chloroquine-quinine-resistant, pyrimethamine-susceptible Vietnam Oak Knoll strain of P. Falciparum; assay: Owl monkey infection with P. falciparum trophozoites, Vietnam Oak Knoll strain; assay type: in vivo, owl monkeys; details: for activity relative to amodiaquine as curative agents: Oak Knoll strains of the malaria parasite; for curative / cleared the parasitemia: Vietnam Oak Knoll strain; for curative: orally at 2.0 mg/kg/day for a three day period; for activity relative to amodiaquine in clearing parasites: Oak Knoll strain; for cleared the parasitemia: orally at 1.0 mg/kg/day for three days
Method: as §1

[3] = test system: normal drug-sensitive strain of Plasmodium berghei; assay: Plasmodium berghei in mice, single subcutaneous dose 72 h post infection, mean survival time and cures; assay type: in vivo; details: Table I; for MST after single s.c. dose (extension of survival time over the controls): animals not cured, control MST 6.1-6.3 days; for MST after single s.c. dose: animals cured (C): five animal group
Method: Compounds of the invention were tested against a normal drug-sensitive strain of Plasmodium berghei in mice by the parenteral route by a procedure described in J. Med. Chem., 1043 (1967). The compounds were dissolved or suspended in sesame or peanut oil and were administered to mice in a single subcutaneous dose seventy-two hours post infection. Extension of the mean survival time of the treated mice is interpreted as evidence of anti-malarial activity. Compounds are arbitrarily considered to be "active" when they produce at least a 100 percent increase in the mean survival time of treated mice. Animals that survive to sixty days are considered "cured" (termed "C" in Tables I and II). The means survival time (MST) of infected control mice ranges from 6.1-6.3 days while the numbers in parentheses in Tables I and II indicate extension of survival time over the controls as an average for those animals of the five animal group not "cured".

[4] = test system: pyrimethamine-resistant Uganda Palo Alto strain of P. Falciparum; assay: Owl monkey infection with P. falciparum trophozoites, Uganda Palo Alto strain; assay type: in vivo, owl monkeys; details: orally at 1.0 mg/kg/day for three days
Method: as §1

[5] = Burckhalter article, Tables VI and XI; cited from earlier work

With `CC(C)(C)NCc1cc(Nc2cc[n+]([O-])c3cc(Cl)ccc23)cc(-c2ccc(Cl)cc2)c1O` [4—Cl, H, NHC(CH3)3, 1, 4'-chloro-5-[(7-chloro-4-quinolinyl)aminoj-3-[[1,1-dimethylethyl)amino]methyl]-[1,1'-biphenyl]-2-ol-1-oxide] the curative [1] was “curative”, the “activity relative to amodiaquine as curative agents” value [2] was “twenty times the activity of amodiaquine” and the curative [2] was “curative”.

With `CCN(CC)Cc1cc(Nc2ccnc3cc(Cl)ccc23)ccc1O` [Amodiaquine, reference compound] the “MST after single s.c. dose (extension of survival time over the controls)” value ([3]; dose 10 (dose unit not given)) was 5.7 days, the “MST after single s.c. dose (extension of survival time over the controls)” value ([3]; dose 20 (dose unit not given)) was 8.3 days and the “MST after single s.c. dose (extension of survival time over the controls)” value ([3]; dose 40 (dose unit not given)) was 11.9 days. For the same compound, the “MST after single s.c. dose: animals cured (C)” value (“MST … (C)” for short) ([3]; dose 80 (dose unit not given)) was 2C, the “MST … (C)” value ([3]; dose 160 (dose unit not given)) was 5C and the “MST … (C)” value ([3]; dose 320 (dose unit not given)) was 5C. The “MST … (C)” value ([3]; dose 640 (dose unit not given)) was 5C.

In the case of `CCN(CC)Cc1cc(Nc2cc[n+]([O-])c3cc(Cl)ccc23)cc(-c2ccc(Cl)cc2)c1O` [Example 1], the curative [1] is reported as “curative”, the “activity relative to amodiaquine as curative agents” value [2] is reported as “twenty times the activity of amodiaquine” and the curative [2] is reported as “curative”.

With `CCN(CC)Cc1cc(Nc2ccnc3cc(Cl)ccc23)cc(-c2ccc(Cl)cc2)c1O` [Example 2, 4'-chloro-5-[(7-chloro-4-quinolinyl)amino]-3-[(diethylamino)methyl][1,1'-biphenyl]-2-ol] the cleared the parasitemia [1] was “cleared the parasitemia”, the “MST after single s.c. dose (extension of survival time over the controls)” value ([3]; dose 10 (dose unit not given)) was 14.2 days and the “MST … (C)” value ([3]; dose 10 (dose unit not given)) was 2C. For the same compound, the “MST … (C)” value ([3]; dose 20 (dose unit not given)) was 3C, the “MST … (C)” value ([3]; dose 40 (dose unit not given)) was 4C and the “MST … (C)” value ([3]; dose 80 (dose unit not given)) was 5C. For the same compound, the “MST … (C)” value ([3]; dose 160 (dose unit not given)) was 5C, the “MST … (C)” value ([3]; dose 320 (dose unit not given)) was 5C and the “MST … (C)” value ([3]; dose 640 (dose unit not given)) was 5C. For the same compound, the “activity relative to amodiaquine in clearing parasites” value [2] was “twenty times the activity of amodiaquine”, the cleared the parasitemia [2] was “cleared the parasitemia” and the cleared the parasitemia [4] was “cleared the parasitemia”.

In the case of `CC(C)(C)NCc1cc(Nc2ccnc3cc(Cl)ccc23)cc(-c2ccc(Cl)cc2)c1O` [Example 3, 4'-chloro-5-[(7-chloro-4-quinolinyl)amino]-3-[[(1,1-dimethylethyl)amino]methyl][1,1'-biphenyl]-2-ol], the cleared the parasitemia [1] is reported as “cleared the parasitemia”, the “activity relative to amodiaquine in clearing parasites” value [2] is reported as “twenty times the activity of amodiaquine” and the cleared the parasitemia [2] is reported as “cleared the parasitemia”. For the same compound, the cleared the parasitemia [4] was “cleared the parasitemia”.

In the case of `C=CCc1cc(Nc2ccnc3cc(Cl)ccc23)cc(CN(CC)CC)c1O` [SN-11991], the quinine equivalent [5] is given as 10.

In the case of `CCN(CC)Cc1cc(Nc2ccnc3cc(Cl)ccc23)cc(Cl)c1O` [SN-13729], the quinine equivalent [5] is listed as 12.
